These are literature values, as cited in patent US20220280598A1, “COMPLEMENT INHIBITOR DOSING REGIMENS” (Apellis Pharmaceuticals, Inc., priority 2019, published 2022).

pIC50: −log10 of the molar value.

As a reminder, the pIC50 is −log10 of the IC50, conventionally taken in molar units.

In data set [1] the test system is complement activation (alternative pathway). As to conditions: alternative pathway-mediated erythrocyte lysis assay (WO2004/026328); cited from earlier work.
The next data set has as its system complement activation. Conditions: relative to compstatin amidated at the C-terminus; published data; cited from earlier work.

Regarding `CC[C@H](C)[C@H](N)C(=O)N[C@H]1CSSC[C@@H](C(=O)N[C@H](C(N)=O)[C@@H](C)O)NC(=O)[C@H](CCCN=C(N)N)NC(=O)[C@H](Cc2cnc[nH]2)NC(=O)[C@H](Cc2cnc[nH]2)NC(=O)CNC(=O)[C@H](Cc2c[nH]c3ccccc23)NC(=O)[C@H](CC(=O)O)NC(=O)[C@H](CCC(N)=O)NC(=O)[C@H](C(C)C)NC(=O)[C@H](C(C)C)NC1=O` [Compstatin, H-ICVVQDWGHHRCT-CONH2], the negative logarithm of the IC50 (pIC50) in data set [1] was 4.92.

Ac-ICVVQDWGHHRCT-CONH2 [Ac-compstatin]: the Activity over compstatin in the data set on complement activation is given as 3 × more.
